According to US20110124888A1, “STYRYLBENZOFURAN DERIVATIVES AS INHIBITORS FOR BETA-AMYLOID FIBRIL FORMATION AND PREPARATION METHOD THEREOF” (Korea Institute of Science and Technology, priority 2008, published 2011):
Structures can show the parent of a compound that is named as a salt. Where two headings read alike, the source gives them in different places. Values belong to the compound of their own block, whether it stands above or below them.

Target: T1, beta-amyloid 42 (Aβ42) (Homo sapiens, UniProt P05067)
T1 construct: Beta-amyloid 42 (Aβ42) was dissolved in dimethylsulfoxide (DMSO)
T1 sequence (P05067 672-713 limits assumed): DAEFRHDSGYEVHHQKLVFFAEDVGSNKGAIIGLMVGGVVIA
Assay: Inhibitory effect on the formation of beta-amyloid fibrils in vitro (ThT fluorescence assay)
Type: biochemical
Conditions: for inhibition at 10 µM: 10 μM compound, Aβ42 25 μM, read-out: % Inhibition (10 μM); for IC50: In vitro ThT analysis (Aβ42: 25 μM); for % inhibition against the beta-amyloid 42 formation compared with curcumin: Tables 1 to 6, relative to curcumin
Description: In order to investigate the inhibitory effect on the formation of beta-amyloid fibrils, the inventive compounds were examined as follows:
Beta-amyloid 42 (Aβ42) was dissolved in dimethylsulfoxide (DMSO) to form a […] Aβ42 stock solution. In addition, ThT (thioflavin T) was dissolved in distilled water to a concentration of 1 mM and subsequently diluted with 50 mM glycin buffer (pH 8.5) to yield a 5 μM ThT stock solution.
45 μL of PBS (phosphate buffer saline, pH 7.4) was added to each of a 96 well fluorescence microplate (white, F-bottom). 5 μL of the 250 μM Aβ42 stock solution was added to each well. The final concentration of each compound obtained in Examples was in a range of 10 to 0.001 μM by adding 2 μL of a solution, which is prepared by dissolving the subject compounds obtained in Examples in DMSO, to each well. At this time, the final concentration of Aβ42 in each well was 25 μM. The plate was then incubated at room temperature for 1 hr, and 150 μL of the 5 μM ThT stock solution was added to each well.
The fluorescence intensity of each well was determined with the multi label fluorescence counter (LS-55 Luminescence spectrometer, Perkin Elmer) at an excitation wavelength of 450 nm (excitation slit width: 10 nm) and an emission wavelength of 482 nm (emission slit width: 10 nm), while adjusting counting time to 1 second. The control group was prepared by adding PBS solution, Aβ42 and DMSO, without adding the inventive compound. % Inhibition on the formation of beta-amyloid fibrils was calculated in accordance with the following equation and IC5O was calculated by using GraphPad Prism version 4.03 Program.
% Inhibition=[1−(C−D)/(A−B)]×100 Equation 1%
A (control group): fluorescence intensity in a group treated with PBS solution, Aβ42, and DMSO
B (blank): fluorescence intensity in a group treated with PBS solution and DMSO
C (experimental group): fluorescence intensity in a group treated with PBS solution, Aβ42, DMSO, and the inventive compound
D (compensation value to the experimental group): fluorescence intensity in a group treated with PBS solution, DMSO, and the inventive compound

Structure (SMILES): Nc1ccc(C=Cc2cc3cc(Cl)ccc3o2)cc1 [Compound 29, 5-chloro-2-(4-aminostyryl)benzofuran]
inhibition at 10 µM (experiment of Table 4): 82.8%
IC50 (experiment of Table 4): 1.99 µM

Structure (SMILES): CN(C)c1ccc(C=Cc2cc3ccccc3o2)cc1 [Compound 1, 2-(4-dimethylaminostyryl)benzofuran]
IC50 (experiment of Table 1): 2.3 µM

Structure (SMILES): COc1ccc(C=Cc2cc3ccccc3o2)cc1OC [Compound 28, 2-(3,4-dimethoxystyryl)benzofuran]
inhibition at 10 µM (experiment of Table 5): 67.4%
IC50 (experiment of Table 5): 3.29 µM

Structure (SMILES): CN(C)c1ccc(C=Cc2cc3ccc(I)cc3o2)cc1 [Compound 15, 6-iodo-2-(4-dimethylaminostyryl)benzofuran]
IC50 (experiment of Table 1): 2.8 µM

Structure (SMILES): Nc1ccc(C=Cc2cc3ccc(O)cc3o2)cc1 [Compound 67, 6-hydroxy-2-(4-aminostyryl)benzofuran]
inhibition at 10 µM (experiment of Table 5): 60.2%

Structure (SMILES): Nc1ccc(C=Cc2cc3cc(O)ccc3o2)cc1 [Compound 18, 5-hydroxy-2-(4-aminostyryl)benzofuran hydrochloride]
IC50 (experiment of Table 1): 2.95 µM

Structure (SMILES): CN(C)c1ccc(C=Cc2cc3ccc(F)cc3o2)cc1 [Compound 12, 6-fluoro-2-(4-dimethylaminostyryl)benzofuran]
IC50 (experiment of Table 1): 2.19 µM

Structure (SMILES): COc1ccc(C=Cc2cc3ccccc3o2)cc1 [Compound 27, 2-(4-methoxystyryl)benzofuran]
inhibition at 10 µM (experiment of Table 3): 58.3%

Structure (SMILES): CN(C)c1ccc(C=Cc2cc3ccc(Br)cc3o2)cc1 [Compound 14, 6-bromo-2-(4-dimethylaminostyryl)benzofuran]
IC50 (experiment of Table 1): 1.34 µM

Structure (SMILES): CCN(CC)c1ccc(C=Cc2cc3cc(OC)c(OC)cc3o2)cc1 [Compound 52, 5,6-dimethoxy-2-(4-diethylaminostyryl)benzofuran]
inhibition at 10 µM (experiment of Table 5): 42.3%

Structure (SMILES): CN(C)c1ncc(/C=C/c2nc3ccccc3o2)s1 [Comparative Example 1, reference compound]
inhibition at 10 µM (experiment of Table 7): 63.4%
IC50 (experiment of Table 7): 3.4 µM

Structure (SMILES): COc1ccc2cc(C=Cc3ccc(OC)c(OC)c3)oc2c1 [Compound 59, 6-methoxy-2-(3,4-dimethoxystyryl)benzofuran]
inhibition at 10 µM (experiment of Table 6): 79.9%
IC50 (experiment of Table 6): 1.02 µM
% inhibition against the beta-amyloid 42 formation compared with curcumin: superior % inhibition

Structure (SMILES): CCN(CC)c1ccc(C=Cc2cc3ccccc3o2)cc1 [Compound 26, 2-(4-diethylaminostyryl)benzofuran]
inhibition at 10 µM (experiment of Table 3): 4.54%

The remaining lines, values ahead:

inhibition at 10 µM (experiment of Table 6): 61%
IC50 (experiment of Table 6): 1.77 µM
% inhibition against the beta-amyloid 42 formation compared with curcumin: superior % inhibition
Structure (SMILES): CNc1ccc(C=Cc2cc3cc(I)ccc3o2)cc1 [Compound 46, 5-iodo-2-(4-methylaminostyryl)benzofuran]

IC50 (experiment of Table 1): 0.168 µM
% inhibition against the beta-amyloid 42 formation compared with curcumin: superior % inhibition
Structure (SMILES): CN(C)c1ccc(C=Cc2cc3cc(I)ccc3o2)cc1 [Compound 8, 5-iodo-2-(4-dimethylaminostyryl)benzofuran]

IC50 (experiment of Table 1): 5.44 µM
Structure (SMILES): COc1ccc2cc(C=Cc3ccc(N)cc3)oc2c1 [Compound 20, 6-methoxy-2-(4-aminostyryl)benzofuran]

inhibition at 10 µM (experiment of Table 4): 37.9%
IC50 (experiment of Table 4): 0.963 µM
Structure (SMILES): CCN(CC)c1ccc(C=Cc2cc3cc(Cl)ccc3o2)cc1 [Compound 31, 5-chloro-2-(4-diethylaminostyryl)benzofuran]

inhibition at 10 µM (experiment of Table 4): 38%
IC50 (experiment of Table 4): 16.8 µM
Structure (SMILES): COc1ccc(C=Cc2cc3cc(I)ccc3o2)cc1 [Compound 49, 5-iodo-2-(4-methoxystyryl)benzofuran]

inhibition at 10 µM (experiment of Table 6): 62.9%
IC50 (experiment of Table 6): 1.88 µM
% inhibition against the beta-amyloid 42 formation compared with curcumin: superior % inhibition
Structure (SMILES): COc1ccc2cc(/C=C/c3ccc(N(C)C)cc3)oc2c1 [hydrochloride of Ex. 9]

IC50 (experiment of Table 1): 0.81 µM
Structure (SMILES): COc1ccc2oc(C=Cc3ccc(N(C)C)cc3)cc2c1 [Compound 2, 5-Methoxy-2-(4-dimethylaminostyryl)benzofuran]

inhibition at 10 µM (experiment of Table 6): 84.7%
IC50 (experiment of Table 6): 1.49 µM
% inhibition against the beta-amyloid 42 formation compared with curcumin: superior % inhibition
Structure (SMILES): CNc1ccc(C=Cc2cc3cc(OCCOCCF)ccc3o2)cc1 [Compound 44, 5-(2-(2-fluoroethoxy)ethoxy)-2-(4-methylaminostyryl)benzofuran]

inhibition at 10 µM (experiment of Table 3): 46.5%
Structure (SMILES): CNc1ccc(C=Cc2cc3ccc(C)cc3o2)cc1 [Compound 62, 6-methyl-2-(4-methylaminostyryl)benzofuran trifluoroacetate]

IC50 (experiment of Table 1): 0.199 µM
% inhibition against the beta-amyloid 42 formation compared with curcumin: superior % inhibition
Structure (SMILES): CN(C)c1ccc(C=Cc2cc3cc(Cl)ccc3o2)cc1 [Compound 6, 5-chloro-2-(4-dimethylaminostyryl)benzofuran]

IC50 (experiment of Table 1): 0.8 µM
Structure (SMILES): CNc1ccc(C=Cc2cc3ccc(OC)cc3o2)cc1 [Compound 21, 6-methoxy-2-(4-methylaminostyryl)benzofuran]

inhibition at 10 µM (experiment of Table 5): 61.9%
Structure (SMILES): CNc1ccc(C=Cc2cc3ccc(O)cc3o2)cc1 [Compound 68, 6-hydroxy-2-(4-methylaminostyryl)benzofuran]

IC50 (experiment of Table 1): 0.82 µM
Structure (SMILES): COc1ccc2oc(C=Cc3ccc(N)cc3)cc2c1 [Compound 16, 5-methoxy-2-(4-aminostyryl)benzofuran]

inhibition at 10 µM (experiment of Table 6): 68.4%
IC50 (experiment of Table 6): 2.17 µM
% inhibition against the beta-amyloid 42 formation compared with curcumin: superior % inhibition
Structure (SMILES): CNc1ccc(C=Cc2cc3cc(Cl)ccc3o2)cc1 [Compound 30, 5-chloro-2-(4-methylaminostyryl)benzofuran]

inhibition at 10 µM (experiment of Table 3): < 1%
Structure (SMILES): CCN(CC)c1ccc(C=Cc2cc3cc(C)ccc3o2)cc1 [Compound 41, 5-methyl-2-(4-diethylaminostyryl)benzofuran]

inhibition at 10 µM (experiment of Table 5): 53.5%
Structure (SMILES): CNc1ccc(C=Cc2cc3cc(OCCOCCOCCF)ccc3o2)cc1 [Compound 45, 5-(2-(2-(2-fluoroethoxy)ethoxy)ethoxy)-2-(4-methylaminostyryl)benzofuran]
